The source of these data is ChEMBL document CHEMBL3621174, “Synthesis and evaluation of new tyrosyl-tRNA synthetase inhibitors as antibacterial agents based on a N2-(arylacetyl)glycinanilide scaffold” (Eur J Med Chem, 2015).

Converted amounts (≈) assume the structure as drawn.

What is called MIC is the lowest concentration found to suppress growth. Low values mean inhibition by little substance, high ones a need for much substance. The term MIC50 denotes the lowest concentration that inhibits either 50% of growth or 50% of the strains tested, depending on the study. A low value points to greater potency. The IC50 is the concentration that gives 50% inhibition. High values mean weaker potency, low ones greater potency.

Experiment [1] concerns Staphylococcus aureus. Kind of experiment: Potency index, ratio of penicillin G MIC to compound MIC for Staphylococcus aureus ATCC 6538. It is filed as functional.
Experiment [2] deals with Staphylococcus aureus. Kind of experiment: Antibacterial activity against Staphylococcus aureus ATCC 6538 after 24 hr by MTT assay. It is filed as functional. The following applies: ATCC 6538, 24 h. For orientation: Tetrazolium assays rely on reduction of a dye to a coloured formazan, in cell work by metabolically active cells.
The test system of experiment [3] is Escherichia coli. Briefly: Antibacterial activity against Escherichia coli ATCC 35218 after 24 hr by MTT assay. It counts as functional. As to conditions: ATCC 35218, 24 h.
For experiment [4], the system named is Staphylococcus aureus. Kind of experiment: Antibacterial activity against Staphylococcus aureus ATCC 25923 after 24 hr by MTT assay. It counts as functional. As to conditions: ATCC 25923, 24 h.
Experiment [5] has as its system Pseudomonas aeruginosa. Kind of experiment: Antibacterial activity against Pseudomonas aeruginosa ATCC 9027 after 24 hr by MTT assay. It counts as functional. The following applies: ATCC 9027, 24 h.
Experiment [6] relates to Escherichia coli. Kind of experiment: Antibacterial activity against Escherichia coli ATCC 8739 after 24 hr by MTT assay. It counts as functional. As to conditions: ATCC 8739, 24 h.
Experiment [7] is described as follows: Inhibition of Staphylococcus aureus Tyrosyl-tRNA synthetase using L-[ring-3,5-3H] tyrosine as substrate after 10 min by liquid scintillation assay.
Experiment [8] relates to Pseudomonas aeruginosa. Kind of experiment: Potency index, ratio of penicillin G MIC to compound MIC for Pseudomonas aeruginosa ATCC 9027. It counts as functional.

In the case of `O=C(Cc1cccc(Cl)c1)NCC(=O)Nc1ccc([N+](=O)[O-])cc1`, the Ratio in experiment [1] is 3; in experiment [8], 3.9. Also, the MIC in experiment [2] amounted to 1.84 µM (≈ 0.64 µg/mL); in experiment [3] it was 9.5 µM (≈ 3.3 µg/mL); in experiment [4], 2.36 µM (≈ 0.821 µg/mL); in experiment [5] it was 10.1 µM (≈ 3.51 µg/mL); in experiment [6], 6.8 µM (≈ 2.36 µg/mL). In addition, the MIC50 was determined as 0.52 µM (≈ 0.181 µg/mL) in experiment [2] and 3.37 µM (≈ 1.17 µg/mL) in experiment [5]. In experiment [7], this compound gave an IC50 of 700 nM.
